In patent EP4574151A1, “INHIBITORS OF G12V-MUTATED RAS PROTEIN TO TREAT CANCER” (Personather Spolka Z Ograniczona Odpowiedzialnoscia, priority 2023, dated 2025):
“Also recorded” adds a separate entry of the source.

Key:
Format in all cases: cell-based
[1] = tested on: PER49 cell line; experiment: Western Blot analysis of the RAS-controlled signal transduction pathway in a normal cell line; details: normal PER49 cell line without KRASG12V; 10, 15 and 20 µM; 24 hours; serum-free; ERK, p-ERK, Akt, pAkt blots
From the text: Analysis of the impact of the studied compound on the signal transduction pathway controlled by RAS family proteins in normal cell lines based on Western Blot analysis.
The example illustrates the impact of the PER154A and PER160A molecules on the signal transduction pathway in the normal PER49 cell line.
• 1. PER49 cell line cells at 80-90% confluency were rinsed with phosphate-buffered saline without Mg2+ and Ca2+ ions. Remove PBS. • 2. Cells were detached from the vessel using Trypsin-EDTA (0.05%, 1x) for 1-3 minutes at 37°C. • 3. Cells were transferred to a 15 ml tube, centrifuged (200xg, 4 minutes) and suspended in RPMI1640 medium with 10% bovine serum and antibiotics. • 4. Cells were counted. • 5. 3x10^5cells were added to each well of a 6-well plate for adherent culture. • 6. The above medium was added and left for approximately 24 hours.
• 7. The cells were washed 2-3 times with buffered saline without Mg2+ and Ca2+ ions. Each time PBS was thoroughly removed. • 8.2 ml of RPMI1640 medium with antibiotics and without serum was added, and left for approximately 24 hours.
• 9. The cells were washed 2-3 times with a buffered saline solution without Mg2+ and Ca2+. PBS was thoroughly removed each time. • 10. […]

[2] = tested on: NIH/3T3 cell line - immortalized mouse fibroblasts; experiment: Crystal violet cytotoxicity test in normal cells; details: summary statement; normal cells NIH/3T3 and PER49
From the text: To evaluate the toxicity of the tested compound on normal cells, the NIH/3T3 cell line - immortalized mouse fibroblasts and normal pericytes (PER49) were used.
(§1) As a research model, colon cancer and lung cancer cell lines (sensitive lines) were used, including SW620, SW480, and COR-L23, respectively, which are characterized by the KRASG12V gene mutation and lack of other alterations in genes belonging to the RAS protein signaling pathway, as well as a stable line of normal cells (mouse fibroblasts), which serve as a platform for evaluating the impact of tested compounds on non-cancer cells. Below is the result for one of the analyzed cell lines with the mutation. Similar differences in IC50 values compared to normal cells were obtained for the other cell lines mentioned above with the RASG12V mutation.
(§2) The effect of molecules on the biology of selected cell lines to assess their cytotoxicity using the IC50 indicator was carried out according to the protocol below: • 1. The cells of the tested lines were seeded in wells of a 96-well plate at specified densities. • 2. After seeding, the cells were subjected to a 24-hour incubation in medium with a 1% and 2.5% addition of serum (sensitive lines) or in medium with a 0.5% addition of serum (normal line). • 3. The cells were exposed to selected molecules at selected concentrations. The control was provided by the culture medium without any added compounds. Concentrations of the tested molecules [uM]: • □ NIH3T3: 500; 250; 125; 62,5; 31,25 • □ SW620: 60; 30; 15; 7,5; 3,75 • 4. After 72 hours of incubation, the culture medium was removed and the cells were washed twice with buffer saline solution (PBS). Then, the cells were incubated for 10 minutes with a 0.1% solution of crystal violet at room temperature (Merck Millipore). • 5. After 10 minutes, the crystal violet solution was removed and the wells of the 96-well plate were washed twice with PBS solution. • 4. 50% ice-cold acetic acid solution was added to each well and incubated again for 10 minutes at room temperature on a shaker at 650 rpm. • 5. Absorbance measurement was performed using a plate reader, at a wavelength of λ = 540 nm

[3] = tested on: SW620 cells (with RASG12V mutation); experiment: Crystal violet cytotoxicity test (IC50) in KRASG12V positive cells; details: for toxicity towards KRASG12V positive cells (SW620) compared to normal cells (NIH/3T3): ratio from IC50 values, crystal violet test, 72 hours incubation; for toxicity against cancer cells expressing KRASG12V: summary statement
From the text: IC50 (half-maximal inhibitory concentration) is the concentration value of a tested compound which inhibits biochemical and biological functions of cells in half of the tested population. Determining this indicator is extremely important for assessing the cytotoxicity of molecules with therapeutic potential.
The first step in developing the methodology for determining IC50 was to conduct density tests to determine the appropriate number of cells to use in cytotoxicity tests. The different content of bovine fetal serum in the culture medium was also investigated to rule out any potential impact on the reduction in cell count, regardless of the analyzed molecules.
as §1, §2

SMILES: O=C(Nc1ccc(F)cc1)c1ccc2c(c1)C1C3CCC(C3)C1C(c1ccccc1)N2 (centres unmarked) [PER160A]
- influence on the signal transduction pathway [1]: No impact; also recorded: does not show any influence
- toxicity against normal cells [2]: no toxicity
- toxicity towards KRASG12V positive cells (SW620) compared to normal cells (NIH/3T3) [3]: over 36 times
- toxicity against cancer cells expressing KRASG12V [3]: toxicity

SMILES: O=C(Nc1ccc2c(c1)OCCO2)c1ccc2c(c1)C1C3CCC(C3)C1C(c1ccccc1)N2 (centres unmarked) [PER154A]
- influence on the signal transduction pathway [1]: No impact; also recorded: does not show any influence
- toxicity against normal cells [2]: no toxicity
- toxicity towards KRASG12V positive cells (SW620) compared to normal cells (NIH/3T3) [3]: about 85 times
- toxicity against cancer cells expressing KRASG12V [3]: toxicity
